The results in this text go back to patent US12453725B2, “Treatment of inflammatory disease” (Celleron Therapeutics Limited, priority 2019, dated 2025).

One test concerns colon26 tumours. Put plainly: RNAseq and qPCR of colon26 tumours. In kind it is in vivo, Balb/c mice. As to the method:
To assess gene expression in tumours that were growing in vivo, we evaluated the effect of CXD101 in the syngeneic colon26 colon carcinoma model in tumours grown subcutaneously in Balb/c mice, with CXD101 given orally for two 5-day consecutive periods and performed RNAseq on RNA purified from the tumours. Formalin-fixed paraffin-embedded samples were also prepared to assess by immunohistochemistry (IHC) the tumour micro-environment.
The effect was dose-dependent, as more tumour-inhibition occurred with a higher dose of CXD101 (50 mg/kg compared to 15 mg/kg). […] We performed RNA seq on polyA-enriched RNA prepared from the tumours. In a similar way to the analysis of colon26 in vitro, the RNAseq data was aligned to the reference M. musculus genome (mm10) with STAR aligner and analysed for differential expression. […] We then assessed whether the same genes identified in the in vitro treated colon26 cells were similarly regulated in vivo.
(Real-time PCR tracks product formation cycle by cycle.)

A further test has as its system SW620 cells. Put plainly: RNA-seq, SW620 cells. It is filed as cell-based, human. As to the method:
SW620 cells were seeded into 6-well plates and left to adhere overnight. Cells were treated with 1 μM, 10 μM of CXD101 for 48 h. CT26 cells were seeded onto 100 mm plates and treated with 2.7 μM and 10 μM CXD101 for 72 h. After treatment cells were harvested and total RNA extracted by means of Promega ReliaPrep™ RNA Cell Miniprep System (Promega, USA). RNA was dissolved in RNAse free water and stored in −80° C. for future analysis. RNA concentration was measured by NanoDrop 2000 (Thermo Fisher Scientific, USA). Samples were qualified for library preparation if […]. Library preparation with poly (A) enrichment was performed by BGI.
FASTQ files for CXD101 and DMSO treated samples in three biological replicates were trimmed to remove adapters and low-quality bases with TrimGalore v.0.4.3 (http://www.bioinformatics.babraham.ac.uk/projects/trim_galore/). The trimmed reads were aligned to the human reference genome (build hg19) with STAR aligner v.2.7 with two mismatches allowed. Differential gene expression analysis was done with the Bioconductor framework (v.3.8) and DESeq2 R package v.1.22, using read count data provided by the aligner. Genes were considered differentially expressed if the adjusted P, calculated using the Benjamini-Hochberg method in order to minimise the false discovery rate, was less than 0.01 (1%) and the change in expression level was greater than ˜2-fold as compared to DMSO control (e.g. |log_2(expression fold change)|>1).

Regarding `Cc1nn(C)cc1CN1CCC(c2ccc(C(=O)Nc3ccccc3N)cc2)CC1` [CXD101, N-(2-aminophenyl)-4-(1-[(1,3-dimethyl-1H-pyrazol-4-yl)methyl]piperidin-4-yl)benzamide], in the test on colon26 tumours (colon26 tumours, qPCR), the “expression of Ccl20, Tnfsrf8” value is given as “no effects”; the “expression of H2-DMb1, H2-Eb1, H2-Dmb1, H2-T3, Ereg, Timp3, Ctla4, H2-D1, Ccl9, 1133” value is “increased expression”; the “expression of Rab3b” value is reported as “decreased”. Besides, in the test with colon26 tumours (log 2 FC >1 and FDR <1%), the “number of DEGs in tumours in vivo” value was 1141. In addition, in the test with SW620 cells (SW620), the “share of DEGs down-regulated” value stood at 30% and the “share of DEGs up-regulated” value is listed as 70%. In the test with SW620 cells (log 2 FC >1 and FDR <1%), the “number of differentially expressed transcripts” value is reported as “about 2500”.
